Experimental data: the Kinase Knowledgebase extract (Sharma et al. 2016)

Molecular target: PIK3CD (Human) (UniProt O00329)
Experiment: Enzyme Assay

PIK3CD (Human), sequence (O00329 whole entry, looked up): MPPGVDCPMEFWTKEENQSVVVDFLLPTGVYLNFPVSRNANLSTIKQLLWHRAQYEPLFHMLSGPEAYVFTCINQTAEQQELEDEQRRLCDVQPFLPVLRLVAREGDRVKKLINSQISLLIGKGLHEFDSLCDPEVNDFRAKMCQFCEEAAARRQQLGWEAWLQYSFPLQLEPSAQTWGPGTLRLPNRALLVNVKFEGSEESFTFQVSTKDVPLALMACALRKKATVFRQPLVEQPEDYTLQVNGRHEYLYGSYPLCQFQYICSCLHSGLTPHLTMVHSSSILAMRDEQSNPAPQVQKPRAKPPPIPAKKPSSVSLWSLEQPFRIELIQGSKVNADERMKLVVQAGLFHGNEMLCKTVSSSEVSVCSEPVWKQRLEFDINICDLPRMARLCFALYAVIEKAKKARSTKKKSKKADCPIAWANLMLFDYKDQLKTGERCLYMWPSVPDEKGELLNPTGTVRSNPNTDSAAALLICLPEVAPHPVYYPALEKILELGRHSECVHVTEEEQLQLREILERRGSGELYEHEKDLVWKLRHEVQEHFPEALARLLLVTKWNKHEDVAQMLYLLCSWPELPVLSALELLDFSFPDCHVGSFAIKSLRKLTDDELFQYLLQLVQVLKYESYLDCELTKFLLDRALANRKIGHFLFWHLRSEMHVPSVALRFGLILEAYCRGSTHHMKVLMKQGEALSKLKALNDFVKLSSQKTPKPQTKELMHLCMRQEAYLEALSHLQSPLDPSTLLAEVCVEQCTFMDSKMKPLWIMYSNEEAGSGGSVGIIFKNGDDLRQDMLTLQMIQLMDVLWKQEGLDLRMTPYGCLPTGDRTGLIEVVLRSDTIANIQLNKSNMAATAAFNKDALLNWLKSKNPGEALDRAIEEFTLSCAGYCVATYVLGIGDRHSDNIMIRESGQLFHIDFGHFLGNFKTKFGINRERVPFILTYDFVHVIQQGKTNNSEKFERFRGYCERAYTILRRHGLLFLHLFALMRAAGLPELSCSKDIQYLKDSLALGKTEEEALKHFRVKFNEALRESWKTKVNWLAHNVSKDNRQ

| SMILES | IC50 [nM] |
| --- | --- |
| CCn1c(-c2cnc(OC)nc2)nc2c(O[C@H]3CCN(C(=O)C4CC4)C3)ncnc21 | 6.3 |
| CCn1ncc(-c2nc3c(O[C@H]4CCN(C(=O)c5cn(C)nc5C(F)(F)F)C4)ncnc3n2C)c1C | 68 |
| CCn1ncc(-c2nc3c(O[C@H]4CCN(C(=O)c5c(C)nn(C)c5C)C4)ncnc3n2C)c1C | 74 |
| CCn1ncc(-c2nc3c(O[C@H]4CCN(C(=O)c5nc(C)oc5C)C4)ncnc3n2C)c1C | 7.2 |
| CCn1ncc(-c2nc3c(OC4CCN(C(=O)OC(C)(C)C)CC4)ncnc3n2C)c1C | 610 |
| CCn1c(-c2cnc(C)nc2)nc2c(O[C@@H]3CCN(C(=O)N4CC(F)(F)C4)C3)ncnc21 | 5.9 |
| CCn1c(-c2cnc(OC)c(C(F)(F)F)c2)nc2c(O[C@H]3CCN(C(=O)C4CC4)C3)ncnc21 | < 1 |
| CCC(=O)N1CC[C@H](Oc2ncnc3c2nc(-c2cnn(-c4ccccc4)c2)n3C)C1 | 6.5 |
| CCn1c(N2CCC(S(C)(=O)=O)C2)nc2c(O[C@H]3CCN(C(=O)OC(C)(C)C)C3)ncnc21 (stereo not given in full) | 700 |
| CCC(=O)N1CC[C@H](Oc2ncnc3c2nc(-c2cnc4[nH]nc(C)c4c2)n3C)C1 | 23 |
| CCn1ncc(-c2nc3c(O[C@H]4CCN(C(=O)NC(C)(C)CC(C)(C)C)C4)ncnc3n2C)c1C | 4.7 |
| CCn1ncc(-c2nc3c(O[C@H]4CCN(S(=O)(=O)c5cn(C)cn5)C4)ncnc3n2C)c1C | 1500 |
| CCn1c(-c2ccc(OC(F)F)nc2)nc2c(O[C@@H]3CCN(C(=O)C4CC4)C3)ncnc21 | 14 |
| CCn1ncc(-c2nc3c(O[C@H]4CCN(C(=O)c5cccn5C)C4)ncnc3n2C)c1C | 8.7 |
| CCn1c(C(=O)NC2CCCCC2)nc2c(O[C@H]3CCN(C(=O)OC(C)(C)C)C3)ncnc21 | 72 |
| CCn1ncc(-c2nc3c(O[C@H]4CCN(C(=O)c5ccnn5C)C4)ncnc3n2C)c1C | 22 |
| CCOC(=O)N1CC[C@H](Sc2ncnc3c2nc(-c2cnn(CC)c2C)n3C)C1 | 37 |
| CCn1c(-c2cnc(C)nc2)nc2c(O[C@H]3CCN(c4ccccc4C)C3)ncnc21 | 85 |

| SMILES | IC50 [nM] |
| --- | --- |
| CCC(=O)N1CC[C@H](S(=O)(=O)c2ncnc3c2nc(-c2cnn(CC)c2C)n3C)C1 | 210 |
| CCn1ncc(-c2nc3c(O[C@@H]4CCN(C(=O)C5CCOCC5)C4)ncnc3n2C)c1C | 1600 |
| CCn1ncc(-c2nc3c(O[C@H]4CCN(c5nccc6sccc56)C4)ncnc3n2C)c1C | 10 |
| CCn1ncc(-c2nc3c(O[C@H]4CCN(C(=O)c5cc(C)on5)C4)ncnc3n2C)c1C | 12 |
| CCn1ncc(-c2nc3c(S[C@H]4CCN(C(=O)c5ccn(C)n5)C4)ncnc3n2C)c1C | 19 |
| Cc1n[nH]c2ncc(-c3nc4c(O[C@H]5CCN(C(=O)OC(C)(C)C)C5)ncnc4n3C)cc12 | 4 |
| CCn1ncc(-c2nc3c(O[C@H]4CCN(C(=O)c5cccc6ccccc56)C4)ncnc3n2C)c1C | 67 |
| CCn1c(-c2cnc(C)nc2)nc2c(O[C@H]3CCN(C(=O)C4CNC4)C3)ncnc21 | 70 |
| CCn1ncc(-c2nc3c(O[C@H]4CC[C@H](NC(=O)OC(C)(C)C)C4)ncnc3n2C)c1C | 140 |
| CCn1ncc(-c2nc3c(O[C@H]4CCN(C(=O)c5cnoc5C)C4)ncnc3n2C)c1C | 36 |
| CCn1c(-c2cnc(C)nc2)nc2c(O[C@@H]3CN(C(=O)OC(C)(C)C)CC3(F)F)ncnc21.CCn1c(-c2cnc(C)nc2)nc2c(O[C@H]3CN(C(=O)OC(C)(C)C)CC3(F)F)ncnc21 | 22 |
| CCn1ncc(-c2nc3c(O[C@@H]4CC[C@H](NC(=O)OC(C)(C)C)C4)ncnc3n2C)c1C | 400 |
| CCn1c(-c2ccc(C(F)(F)F)nc2)nc2c(O[C@H]3CCN(C(=O)C4CC4)C3)ncnc21 | 3 |
| CCn1ncc(-c2nc3c(O[C@H]4CCN(C(=O)c5nnsc5C)C4)ncnc3n2C)c1C | 5.3 |
| CCC(=O)N1CC[C@H](Oc2ncnc3c2nc(-c2cnc(OC)c(NS(C)(=O)=O)c2)n3C)C1 | 2 |
| CCOC(=O)N1CC[C@H](Oc2ncnc3c2nc(-c2cnn(CC)c2C)n3C)C1 | 33 |
| CCn1ncc(-c2nc3c(OC4CCN(C(=O)c5cnco5)C4)ncnc3n2C)c1C (stereo not given) | 17 |
